Where “and” joins values, the source holds several entries; their conditions need not be identical. Identical values can stand only once. Marks after values point to notes of the source that are not given here. Ends that are not written are not given here.
Columns and labels:
mononuclear phagocyte = experiment: Carbon particle clearance test, phagocytosis function; format: in vivo, BALB/c mice; parameters: key to X ± SD (phagocytotic index): α = cube root of K × (body weight ÷ liver+spleen weight); settings: for X ± SD (phagocytotic index): healthy mice, saline 5.1 ± 0.6; for effect on the phagocytotic activity of mononuclear phagocyte (summary): statistically significant difference from saline in any of the dosage groups 0.5-500 μg/kg/day
Method in brief: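 Clearance index K came from OD680 of blood sampled 1 and 5 min after tail-vein India ink ([…], diluted 5×), given on day 16. Phagocytic index α combined K with liver, spleen […] weights taken the same day.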

NK cell = NK cell cytotoxicity activity test (spleen cells of treated mice against YAC-1 target cells, MTT); format: in vivo, BALB/c mice; settings: for NK cell cytotoxic activity, X ± SD (%): healthy mice; for effect on the cytotoxic activity of NK cells (summary): statistically significant difference from saline in any of the dosage groups 0.5-500 μg/kg/day
Method in brief: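 YAC-1 target cells (1×10^5/ml) mixed with splenocytes (4×10^6/ml) from mice given test substances i.p. daily for 15 days (10 mice/group). Effector-only and target-only wells served as controls. MTT added at 1 mg/ml for 4 h at 37 °C; absorbance read at 570/630 nm.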

thymus gland = experiment: Immunity organ weight test, thymus gland index; format: in vivo, BALB/c mice; settings: for weight of thymus gland (thymus gland index), X ± SD (%): healthy mice, saline 0.12 ± 0.02; for effect on the weight of the thymus gland (summary): statistically significant difference from saline in any of the dosage groups 0.5-500 μg/kg/day
Procedure: One day after the last test substance administration (day 16), the liver, spleen, and thymus gland were separated and blotted dry with filter paper and weighed. The phagocytosis index α was calculated as below: α=(^3√{square root over ( )}K)(W÷WLS)
Thymus gland index (%)=(thymus weight/body weight)×100%

interferon (IFN) = tested on: interferon (IFN); parameters: species or system BALB/c mice; settings: mouse, in vivo; for activity of T lymphocyte in secreting IFN, X ± SD (IU): ip
anti-SRBC antibody = experiment: Sheep Red Blood Cell (SRBC) hemolysis test, antibody formation; format: in vivo, BALB/c mice; settings: for anti-SRBC antibody formation, X ± SD (Unit): healthy mice, SRBC day 12 (IFN-γ, IL-2 3×10^5 IU/kg/day), saline 32 ± 7; for effect on the synthesis of anti-SRBC antibody upon the antigenic challenge (summary): statistically significant difference from saline in any of the dosage groups 0.5-500 μg/kg/day
Method in brief: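 Antibody formation was read as haemolysis: 500-fold diluted serum, collected on day 16 after intraperitoneal SRBC (0.2 ml, day 12), was mixed with 2% SRBC plus complement for 10 min at 37° C. Supernatant haemoglobin measured with Drabkin reagent at OD540, indexed against a reference SRBC lysate ×500.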

[1] = peptide 5 μg/kg/day i.p. 15 days (IFN-γ, IL-2 3×10^5 IU/kg/day)
[2] = peptide 5 μg/kg/day i.p. 15 days (IFN-γ, IL-2 3×10^5 IU/kg/day), saline 60 ± 9
[3] = peptide 500 μg/kg/day i.p. 15 days (IFN-γ, IL-2 3×10^5 IU/kg/day), saline 63 ± 9
[4] = peptide 0.5 μg/kg/day i.p. 15 days (IFN-γ, IL-2 3×10^5 IU/kg/day)
[5] = peptide 500 μg/kg/day i.p. 15 days (IFN-γ, IL-2 3×10^5 IU/kg/day)
[6] = peptide 0.5 μg/kg/day i.p. 15 days
[7] = peptide 500 μg/kg/day i.p. 15 days
[8] = peptide 5 μg/kg/day i.p. 15 days
[9] = peptide 50 μg/kg/day i.p. 15 days
[10] = peptide 50 μg/kg/day i.p. 15 days (IFN-γ, IL-2 3×10^5 IU/kg/day)
[11] = peptide 0.5 μg/kg/day i.p. 15 days (IFN-γ, IL-2 3×10^5 IU/kg/day), saline 58 ± 7

VAPEEHPTLLTEAPLNPK [CMS010]
X ± SD (phagocytotic index) (mononuclear phagocyte; [1]): 7.1 ± 0.7*^ | effect on the phagocytotic activity of mononuclear phagocyte (summary) (mononuclear phagocyte): enhance | NK cell cytotoxic activity, X ± SD (%) (NK cell; [2]): 82 ± 9 % | NK cell cytotoxic activity, X ± SD (%) (NK cell; [3]): 91 ± 4*^@^ % | effect on the cytotoxic activity of NK cells (summary) (NK cell): increase | weight of thymus gland (thymus gland index), X ± SD (%) (thymus gland; [4]): 0.21 ± 0.03 % | weight of thymus gland (thymus gland index), X ± SD (%) (thymus gland; [1]): 0.27 ± 0.05*^@^ % | weight of thymus gland (thymus gland index), X ± SD (%) (thymus gland; [5]): 0.19 ± 0.04 % | effect on the weight of the thymus gland (summary) (thymus gland): increase | effect on the secretion of IFN by T lymphocytes (summary) (interferon (IFN)): enhance | activity of T lymphocyte in secreting IFN, X ± SD (IU) (interferon (IFN)): 167 ± 13*^@^ IU and 142 ± 18*^@^ IU | anti-SRBC antibody formation, X ± SD (Unit) (anti-SRBC antibody; [6]): 10 ± 3 Unit | anti-SRBC antibody formation, X ± SD (Unit) (anti-SRBC antibody; [7]): 112 ± 30*^@^ Unit

LRVAPQQHPTL [CMS009]
X ± SD (phagocytotic index) (mononuclear phagocyte; [1]): 6.9 ± 0.9*^ | effect on the phagocytotic activity of mononuclear phagocyte (summary) (mononuclear phagocyte): enhance | NK cell cytotoxic activity, X ± SD (%) (NK cell; [2]): 92 ± 6*^@^ % | effect on the cytotoxic activity of NK cells (summary) (NK cell): increase | effect on the secretion of IFN by T lymphocytes (summary) (interferon (IFN)): enhance | activity of T lymphocyte in secreting IFN, X ± SD (IU) (interferon (IFN)): 121 ± 15*^ IU | anti-SRBC antibody formation, X ± SD (Unit) (anti-SRBC antibody; [6]): 2 ± 1 Unit | anti-SRBC antibody formation, X ± SD (Unit) (anti-SRBC antibody; [8]): 79 ± 18*^@ Unit | anti-SRBC antibody formation, X ± SD (Unit) (anti-SRBC antibody; [9]): 13 ± 5 Unit | anti-SRBC antibody formation, X ± SD (Unit) (anti-SRBC antibody; [7]): 113 ± 22*^@^ Unit

IGMESAGIHETTY [CMS016]
X ± SD (phagocytotic index) (mononuclear phagocyte; [1]): 6.9 ± 0.8*^ | effect on the phagocytotic activity of mononuclear phagocyte (summary) (mononuclear phagocyte): enhance | NK cell cytotoxic activity, X ± SD (%) (NK cell; [3]): 91 ± 7*^@^ % | effect on the cytotoxic activity of NK cells (summary) (NK cell): increase | weight of thymus gland (thymus gland index), X ± SD (%) (thymus gland; [1]): 0.22 ± 0.06 % | weight of thymus gland (thymus gland index), X ± SD (%) (thymus gland; [10]): 0.20 ± 0.03*^@^ % | weight of thymus gland (thymus gland index), X ± SD (%) (thymus gland; [5]): 0.18 ± 0.05 % | effect on the weight of the thymus gland (summary) (thymus gland): increase | effect on the secretion of IFN by T lymphocytes (summary) (interferon (IFN)): enhance | activity of T lymphocyte in secreting IFN, X ± SD (IU) (interferon (IFN)): 162 ± 19*^@^ IU | anti-SRBC antibody formation, X ± SD (Unit) (anti-SRBC antibody; [8]): 93 ± 32*^@ Unit | anti-SRBC antibody formation, X ± SD (Unit) (anti-SRBC antibody; [7]): 143 ± 38*^@^ Unit | effect on the synthesis of anti-SRBC antibody upon the antigenic challenge (summary) (anti-SRBC antibody): enhance

Tyr Ser Phe (YSF; listed as Sus scrofa) [CMS022]
X ± SD (phagocytotic index) (mononuclear phagocyte; [5]): 7.4 ± 0.6*^@^ | effect on the phagocytotic activity of mononuclear phagocyte (summary) (mononuclear phagocyte): enhance | NK cell cytotoxic activity, X ± SD (%) (NK cell; [11]): 73 ± 11 % | effect on the cytotoxic activity of NK cells (summary) (NK cell): increase | weight of thymus gland (thymus gland index), X ± SD (%) (thymus gland; [4]): 0.21 ± 0.06 % | weight of thymus gland (thymus gland index), X ± SD (%) (thymus gland; [1]): 0.25 ± 0.04*^@^ % | weight of thymus gland (thymus gland index), X ± SD (%) (thymus gland; [10]): 0.30 ± 0.03*^@^ % | weight of thymus gland (thymus gland index), X ± SD (%) (thymus gland; [5]): 0.26 ± 0.05*^@^ % | effect on the weight of the thymus gland (summary) (thymus gland): increase | effect on the secretion of IFN by T lymphocytes (summary) (interferon (IFN)): enhance | activity of T lymphocyte in secreting IFN, X ± SD (IU) (interferon (IFN)): 145 ± 13*^@^ IU | anti-SRBC antibody formation, X ± SD (Unit) (anti-SRBC antibody; [9]): 110 ± 16*^@^ Unit | anti-SRBC antibody formation, X ± SD (Unit) (anti-SRBC antibody; [7]): 68 ± 31*^@ Unit | effect on the synthesis of anti-SRBC antibody upon the antigenic challenge (summary) (anti-SRBC antibody): enhance

RVAPQQHPTL [CMS011]
X ± SD (phagocytotic index) (mononuclear phagocyte; [1]): 6.4 ± 1.1 | effect on the phagocytotic activity of mononuclear phagocyte (summary) (mononuclear phagocyte): enhance | NK cell cytotoxic activity, X ± SD (%) (NK cell; [11]): 79 ± 3 % | NK cell cytotoxic activity, X ± SD (%) (NK cell; [2]): 76 ± 10 % | effect on the cytotoxic activity of NK cells (summary) (NK cell): increase | weight of thymus gland (thymus gland index), X ± SD (%) (thymus gland; [1]): 0.22 ± 0.04 % | effect on the secretion of IFN by T lymphocytes (summary) (interferon (IFN)): enhance | activity of T lymphocyte in secreting IFN, X ± SD (IU) (interferon (IFN)): 89 ± 18 IU | anti-SRBC antibody formation, X ± SD (Unit) (anti-SRBC antibody; [6]): 5 ± 3 Unit | anti-SRBC antibody formation, X ± SD (Unit) (anti-SRBC antibody; [8]): 115 ± 27*^@^ Unit | anti-SRBC antibody formation, X ± SD (Unit) (anti-SRBC antibody; [9]): 67 ± 9*^@ Unit | anti-SRBC antibody formation, X ± SD (Unit) (anti-SRBC antibody; [7]): 188 ± 16*^@^ Unit

B1: IFN-γ: recombinant mouse IFN-γ (rmIFN-γ), Beijing Biotech Inc.; positive control (protein, UniProt P01580 23-155, looked up)
Interferon gamma: HGTVIESLESLNNYFNSSGIDVEEKSLFLDIWRNWQKDGDMKILQSQIISFYLRLFEVLKDNQAISNNISVIESHLITTFFSNSKAKKDAFMSIAKFEVNNPQVQRQAFNELIRVVHQLLPESSLRKRKRSRC
X ± SD (phagocytotic index) (mononuclear phagocyte; [4]): 6.4 ± 0.9 | X ± SD (phagocytotic index) (mononuclear phagocyte; [1]): 6.4 ± 0.9 | X ± SD (phagocytotic index) (mononuclear phagocyte; [10]): 6.4 ± 0.9 | X ± SD (phagocytotic index) (mononuclear phagocyte; [5]): 6.4 ± 0.9 | NK cell cytotoxic activity, X ± SD (%) (NK cell; [11]): 72 ± 9 % | NK cell cytotoxic activity, X ± SD (%) (NK cell; [2]): 80 ± 8 % | NK cell cytotoxic activity, X ± SD (%) (NK cell; peptide 50 μg/kg/day i.p. 15 days (IFN-γ, IL-2 3×10^5 IU/kg/day), saline 56 ± 8): 73 ± 10 % | NK cell cytotoxic activity, X ± SD (%) (NK cell; [3]): 77 ± 8 % | weight of thymus gland (thymus gland index), X ± SD (%) (thymus gland; [4]): 0.15 ± 0.04% | weight of thymus gland (thymus gland index), X ± SD (%) (thymus gland; [1]): 0.15 ± 0.04% | weight of thymus gland (thymus gland index), X ± SD (%) (thymus gland; [10]): 0.15 ± 0.04% | weight of thymus gland (thymus gland index), X ± SD (%) (thymus gland; [5]): 0.15 ± 0.04% | activity of T lymphocyte in secreting IFN, X ± SD (IU) (interferon (IFN)): 139 ± 16 IU and 125 ± 18 IU and 124 ± 16 IU | anti-SRBC antibody formation, X ± SD (Unit) (anti-SRBC antibody; [6]): 37 ± 10 Unit | anti-SRBC antibody formation, X ± SD (Unit) (anti-SRBC antibody; [8]): 37 ± 10 Unit | anti-SRBC antibody formation, X ± SD (Unit) (anti-SRBC antibody; [9]): 37 ± 10 Unit | anti-SRBC antibody formation, X ± SD (Unit) (anti-SRBC antibody; [7]): 37 ± 10 Unit

Source: patent US20060167229A1, “Biologically active peptide conjugates” (priority 2002, published 2006)
